The values below come from patent US20170114030A1, “COMPOSITION WITH HIGH CONTENT OF CYCLIC DIPEPTIDE” (SUNTORY HOLDINGS LIMITED, priority 2014, published 2017).

The test system of one assay is NCI-H716 cells. Put plainly: In vitro GLP-1 secretion-accelerating action (active GLP-1 ELISA). Format: cell-based. The note with it: for Significant difference (p < 0.05) vs control group, amount of active GLP-1 secreted: 1 hour, Student's t-test; for Amount of active GLP-1 secreted (relative value to control group as 100), Average value: after 1 hour, group with no cyclic dipeptide = 100. A digest of the protocol: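 NCI-H716 cells were cultured 48 h, then exposed for 1 h in PBS(+) to cyclic dipeptide (10 mM final) plus 10 μM sitagliptin. Active GLP-1 in the supernatant was measured by ELISA and expressed relative to the no-dipeptide group (=100).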
Background: An ELISA detects its analyte on a solid surface through an enzyme-linked reagent.

The next assay relates to plasma active GLP-1. Put plainly: In vivo plasma active GLP-1 level-increasing action after oral administration. Also on record: species or system mice. As to conditions: 10 mg/kg orally; for Plasma active GLP-1 level (relative value to control group as 100), Average value: male C57/BL6J mice, blood after 30 minutes, 0.5% CMC-Na group = 100; for Significant difference (p < 0.05) vs control group, plasma active GLP-1 level: mice, 30 minutes, Student's t-test. How it is done: In the Test Examples below, data were represented as average value±standard error. In Test Examples 1, 2, and 3, a Student's t-test was used for a statistical test, and in other Test Examples, one-way ANOVA was carried out for dispersion analysis followed by a multiple comparison test by using a Dunnet's test. […] All of these analyses were carried out by using an SPSS for Windows release 17.0 (manufactured by SPSS Inc.).
Among the cyclic dipeptides, cyclic dipeptides for which an in vitro GLP-1 secretion-accelerating action was found and highly lipid-soluble cyclic dipeptides were used in the following experiment. Seven-week-old male C57/BL6J mice were purchased from CLEA Japan, Inc. for use, and they were subjected to an experiment after 1 week of a habituation period. Each animal was grown in an animal room with an air conditioning system (temperature: 23.5±1.0° C., humidity: 55±10 RH %, air ventilation: 12 to 15 times/hour, illumination: from 7:00 to 19:00/day).
After the habituation period, the mice were subjected to 5.5 hours of food deprivation and 2 hours of water deprivation. Thereafter, a cyclic dipeptide dissolved or suspended in a 0.5% CMC-Na aqueous solution in 10 mg/kg was orally administered to each mouse forcibly. After 30 minutes, the blood was collected from the abdominal vena cava under anesthesia, and 1 μL of heparin sodium and 1 μL of 10 mM Sitagliptin phosphate were added to each collected blood, which was then subjected to centrifugation at 8000 rpm for 10 minutes to recover the plasma, and the plasma active GLP-1 level was measured by using the ELISA kit. In the analysis, the active GLP-1 level for a group administered with 0.5% CMC-Na aqueous solution was defined as 100, and relative values thereto were used.
In each Table, cyclic dipeptides for which an in vivo plasma active GLP-1 level-increasing action was found and was not found are listed.

Where [1] appears, read: Experiment 4, cyclic dipeptide 10 mM with 10 μM Sitagliptin phosphate.

With `O=C(O)CC1NC(=O)C(CO)NC1=O` (stereo not drawn) [compound 193], in the assay on NCI-H716 cells (Experiment 4, 10 mM), the “Significant difference (p < 0.05) vs control group, amount of active GLP-1 secreted” value is reported as “Yes”. The “Amount of active GLP-1 secreted (relative value to control group as 100), Average value” with NCI-H716 cells (setting [1]) is on record as 509. In the assay with plasma active GLP-1 (Experiment 2), the “Plasma active GLP-1 level (relative value to control group as 100), Average value” came to 266 and the “Significant difference (p < 0.05) vs control group, plasma active GLP-1 level” value is “Yes”.
As for `C[C@@H]1NC(=O)C2CCCN2C1=O` (stereo partly drawn) [compound 187], in the assay with NCI-H716 cells (Experiment 4, 10 mM), the “Significant difference (p < 0.05) vs control group, amount of active GLP-1 secreted” value was “Yes”. Also, the “Amount of active GLP-1 secreted (relative value to control group as 100), Average value” with NCI-H716 cells (setting [1]) was 1186. In addition, in the assay on plasma active GLP-1 (Experiment 2), the “Plasma active GLP-1 level (relative value to control group as 100), Average value” stood at 217 and the “Significant difference (p < 0.05) vs control group, plasma active GLP-1 level” value is recorded as “Yes”.
Turning to `CC(C)C1NC(=O)C(CCCNC(=N)N)NC1=O` (stereo not drawn) [compound 194], the “Significant difference (p < 0.05) vs control group, amount of active GLP-1 secreted” value in the assay on NCI-H716 cells (Experiment 4, 10 mM) was “Yes”. For the same compound, in the assay with NCI-H716 cells (setting [1]), the “Amount of active GLP-1 secreted (relative value to control group as 100), Average value” came to 498. Further, in the assay with plasma active GLP-1 (Experiment 2), the “Plasma active GLP-1 level (relative value to control group as 100), Average value” came out at 237 and the “Significant difference (p < 0.05) vs control group, plasma active GLP-1 level” value is listed as “Yes”.
Regarding `O=C1N[C@@H](Cc2c[nH]c3ccccc23)C(=O)N[C@H]1Cc1c[nH]cn1` [compound 60], the “Significant difference (p < 0.05) vs control group, amount of active GLP-1 secreted” value in the assay with NCI-H716 cells (Experiment 2, 10 mM) is listed as “Yes”. Moreover, the “Amount of active GLP-1 secreted (relative value to control group as 100), Average value” in the assay with NCI-H716 cells (Experiment 2, cyclic dipeptide 10 mM with 10 μM Sitagliptin phosphate) is 260. Further, in the assay with plasma active GLP-1 (Experiment 1), the “Plasma active GLP-1 level (relative value to control group as 100), Average value” came to 129 and the “Significant difference (p < 0.05) vs control group, plasma active GLP-1 level” value was “No”.
On to `CSCCC1NC(=O)C(CCCNC(=N)N)NC1=O` (stereo not drawn) [compound 199], for which the “Significant difference (p < 0.05) vs control group, amount of active GLP-1 secreted” value with NCI-H716 cells (Experiment 4, 10 mM) is reported as “Yes”. The “Amount of active GLP-1 secreted (relative value to control group as 100), Average value” in the assay on NCI-H716 cells (setting [1]) amounted to 652. Further, in the assay on plasma active GLP-1 (Experiment 2), the “Plasma active GLP-1 level (relative value to control group as 100), Average value” is given as 217 and the “Significant difference (p < 0.05) vs control group, plasma active GLP-1 level” value was “Yes”.
As to `NC(=O)CCC1NC(=O)C(Cc2c[nH]cn2)NC1=O` (stereo not drawn) [compound 191], the “Significant difference (p < 0.05) vs control group, amount of active GLP-1 secreted” value with NCI-H716 cells (Experiment 4, 10 mM) is recorded as “Yes”. Moreover, the “Amount of active GLP-1 secreted (relative value to control group as 100), Average value” in the assay on NCI-H716 cells (setting [1]) amounted to 743. In addition, in the assay with plasma active GLP-1 (Experiment 2), the “Plasma active GLP-1 level (relative value to control group as 100), Average value” came to 247 and the “Significant difference (p < 0.05) vs control group, plasma active GLP-1 level” value was “Yes”.
